Measurements: PMC11651172, “Suite of Biochemical and Cell-Based Assays for the Characterization of Kirsten Rat Sarcoma (KRAS) Inhibitors and Degraders” (ACS Pharmacology & Translational Science, 2024)
Entries after “also recorded” stand apart in the source; their conditions may differ. Like-named read-outs stand apart in the source and are kept apart here.

How the values were obtained:
KRAS(G12C) [1] = molecular target: T1, KRAS(G12C) (Homo sapiens, UniProt P01116, G12C); set-up: made in house; host or cells: HEK293 (transient transfection, unpurified extract); method as in PMID 32875077, PMID 34715575; settings: Western blot, among three different cell lines; cited from earlier work
Target sequence in this assay (P01116 1-164 G12C): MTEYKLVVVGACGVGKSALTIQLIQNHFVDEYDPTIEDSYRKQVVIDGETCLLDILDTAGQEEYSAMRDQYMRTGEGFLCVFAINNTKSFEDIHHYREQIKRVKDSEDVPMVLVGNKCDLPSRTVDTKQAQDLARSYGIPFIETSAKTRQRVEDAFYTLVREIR

KRAS(G12D) [2] = molecular target: T2, KRAS(G12D) (Homo sapiens, UniProt P01116, G12D); test: targeted protein degradation assay (EFC); type: cell-based; settings: A549 ED-KRAS(G12D) cells, 18 h, top dose 10 μM
T2 construct: knocking in an ED fragment (and the relevant mutation in KRAS) into the KRAS locus by CRISPR technology; ED tag (ePL, enhanced ProLink); host or cells: A549 (SPRINTer A549 KRAS G12D, CRISPR knock-in)
T2 sequence (P01116 1-188 isoform P01116-2 G12D): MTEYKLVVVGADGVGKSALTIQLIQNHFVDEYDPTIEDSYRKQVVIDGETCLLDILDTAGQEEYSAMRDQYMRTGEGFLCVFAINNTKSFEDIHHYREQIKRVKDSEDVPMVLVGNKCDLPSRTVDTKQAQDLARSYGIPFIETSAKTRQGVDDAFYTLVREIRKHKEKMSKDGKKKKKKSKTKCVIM
Description: (§1) We tested the KRAS(G12C)-specific protein degrader LC2 (Figure 1C) with our three KRAS cell lines in the developed protein degradation assay. The assay was set up in homogeneous 384-well format with an 11-point dose response curve, with a top dose of 10 μM and each dose tested in quadruplicate. Cells were incubated with LC2 for 18 h and at the end of incubation, detection reagents containing the complementing EA fragment were added to each well for chemiluminescence quantitation. Shown in Figure 6A, LC2 induced a loss of signal (an indication of protein degradation) in KRAS(G12C) cells with a DC50 of 1.9 μM and a Dmax of 69%, close to the previously described value.[25]
(§2) The gRNAs (crRNA), HiFi Cas9 Nuclease V3, and ATTO 550 tracrRNA used in this study to generate ED-tagged KRAS cell lines were purchased from Integrated DNA Technologies (Coralville, IA). Double-stranded DNAs containing ED or ePL (enhanced ProLink) were purchased from Eurofins Genomics Blue Heron (Bothell, WA). […] The gRNA was first annealed with fluorescence-labeled (ATTO-550) tracrRNA in a 1:1 ratio to form an RNA duplex, followed by incubation with Cas9 nuclease to generate Cas9-gRNA ribonucleoprotein (RNP). […] At 16 h postelectroporation, cells with high fluorescence at 550 nm were sorted to enrich the genome-edited cell populations. […]

KRAS(WT) [3] = molecular target: T3, KRAS(WT) (Homo sapiens, UniProt P01116); test: targeted protein degradation assay (EFC); type: cell-based; settings: A549 ED-KRAS(WT) cells, 18 h, top dose 10 μM
T3 construct: knocking in an ED fragment (and the relevant mutation in KRAS) into the KRAS locus by CRISPR technology; ED tag (ePL, enhanced ProLink); host or cells: A549 (SPRINTer A549 KRAS WT, homozygous CRISPR knock-in)
T3 sequence (P01116 1-188 isoform P01116-2): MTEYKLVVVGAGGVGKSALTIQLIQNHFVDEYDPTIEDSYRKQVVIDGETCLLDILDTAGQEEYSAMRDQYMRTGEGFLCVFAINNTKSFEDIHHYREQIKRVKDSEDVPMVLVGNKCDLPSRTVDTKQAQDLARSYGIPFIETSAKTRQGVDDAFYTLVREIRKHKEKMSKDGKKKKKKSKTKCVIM
Description: as §1, §2

KRAS(G12C) [4] = molecular target: T1, KRAS(G12C); test: targeted protein degradation assay (EFC); type: cell-based; set-up: knocking in an ED fragment (and the relevant mutation in KRAS) into the KRAS locus by CRISPR technology; ED tag (ePL, enhanced ProLink); host or cells: A549 (SPRINTer A549 KRAS G12C, homozygous CRISPR knock-in)
Description: as §1, §2
Target sequence in this assay (P01116 1-188 isoform P01116-2 G12C): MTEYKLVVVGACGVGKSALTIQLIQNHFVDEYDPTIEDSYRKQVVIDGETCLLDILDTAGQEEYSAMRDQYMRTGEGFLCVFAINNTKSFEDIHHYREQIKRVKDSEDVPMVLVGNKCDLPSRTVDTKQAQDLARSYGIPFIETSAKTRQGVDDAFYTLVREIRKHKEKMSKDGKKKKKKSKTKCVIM

KRAS(G12D) [5] = molecular target: T2, KRAS(G12D); test: pulse target engagement assay; type: cell-based; settings: KRAS(G12D) cells, 1 or 5 h incubation, 3 min at 67 °C
Description: (§3) Next, we explored the application of KRAS cell lines for a pulse target engagement (TE) assay to profile compounds or identify new ligands. The TE assay is based on the observation that the direct interaction between a compound and its cellular protein target increases the stability of the protein and reduces its turnover.[48],[49],[51] […] Therefore, in our pulse TE assay, cells are incubated with a compound and then subjected to an elevated temperature to induce protein denaturation. Compound binding protects the target protein from denaturation, and consequently preserves enzyme complementation activities with the cellular ED-tagged fusion protein, producing a robust chemiluminescent signal. In the absence of compound binding, the target protein forms denatured aggregates that leads to a loss of complementation ability and decreased chemiluminescent signal (Figure 7).
(§4) We next performed pulse TE assays with a panel of KRAS inhibitors on three KRAS cell lines. […] Cells were incubated with the compounds for 1 or 5 h, followed by a 3 min incubation at 67 °C.
(§5) The pulse target engagement assay was set up in a 96-well format with an 11-point dose response curve (triplicates/dose) and vehicle control. Cells were collected and diluted in complete medium that allowed for a cell seeding of 5000 cells in 40 μL per well in 96-well PCR plates (black, Thermo Fisher Scientific, Waltham, MA). […]

KRAS(WT) [6] = molecular target: T3, KRAS(WT); test: pulse target engagement assay; type: cell-based; settings: KRAS(WT) cells, 1 or 5 h incubation, 3 min at 67 °C
Description: as §3, §4, §5

KRAS(G12C) [7] = molecular target: T1, KRAS(G12C); test: pulse target engagement assay; type: cell-based; set-up: knocking in an ED fragment (and the relevant mutation in KRAS) into the KRAS locus by CRISPR technology; ED tag (ePL, enhanced ProLink); host or cells: A549 (SPRINTer A549 KRAS G12C, homozygous CRISPR knock-in); settings: KRAS(G12C) cells, 1 or 5 h incubation, 3 min at 67 °C
Description: as §3, §4, §5
Target sequence in this assay (P01116 1-188 isoform P01116-2 G12C): as above

Row | SMILES | DC50 (KRAS(G12C) [1]) | Dmax (KRAS(G12C) [1]) | protein degradation (KRAS(G12D) [2]) | protein degradation (KRAS(WT) [3]) | Dmax (KRAS(G12C) [4]; A549) | DC50 (KRAS(G12C) [4]; A549 ED-KRAS(G12C) cells, 18 h incubation) | target engagement (affinity in words) (KRAS(G12D) [5]) | target engagement (affinity in words) (KRAS(WT) [6]) | target engagement (affinity in words) (KRAS(G12C) [7])
1 | C=C(F)C(=O)N1CCN(c2nc(OC[C@@H]3CCCN3CCCOCCC(=O)N[C@H](C(=O)N3C[C@H](O)C[C@H]3C(=O)NCc3ccc(-c4scnc4C)cc3)C(C)(C)C)nc3c2CCN(c2cccc4cccc(Cl)c24)C3)C[C@@H]1CC#N [LC2] | 0.25 to 0.76 µM | 75%–90% | some degradation in KRAS(G12D) cells at high doses; also recorded: low levels of KRAS(G12D) degradation only at higher concentrations | sparing KRAS(WT) | 69% | 1.9 µM | – | – | –
2 | C#Cc1c(F)ccc2cc(O)cc(-c3ncc4c(N5CC6CCC(C5)N6)nc(OC[C@@]56CCCN5C[C@H](F)C6)nc4c3F)c12 [MRTX1133] | – | – | – | – | – | – | high selectivity; also recorded: high affinity | some interaction; also recorded: some binding to KRAS(G12C) and KRAS(WT) proteins at high concentration | some interaction; also recorded: some binding to KRAS(G12C) and KRAS(WT) proteins at high concentration
